In patent US12459951B2, “Compounds that interact with RAS superfamily proteins for treatment of cancers, inflammatory diseases, rasopathies, and fibrotic disease” (SHY Therapeutics, LLC, priority 2022, dated 2025):

How the values were obtained:
Akt phosphorylation = assay: Akt Phosphorylation Assay (western blot), Panc-1; format: cell-based, human; conditions: at 10 μM, * = activation
Summary of the method: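 Phospho-Akt (Ser473) was measured by western blot in lysates of KRas G12D Panc-1 cells exposed to test compound for 6 h at 37 °C, either at 10 μM final with 0.3% DMSO or as serial dilutions for IC50. One format used overnight 0.5% FBS starvation followed by a 15 min pulse of 1.5 ng/ml EGF. The other used cells in 10% FBS with no stimulation.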

[1] = tested on: Smad2/Smad3 phosphorylation; assay: Phospho-Smad2/3 Inhibition Assay (western blot), Panc-1; format: cell-based, human; conditions: at 10 μM, Panc-1 pancreatic cancer cell line; starred symbols = activation
Summary of the method: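 Western blotting of lysates (15-50 μg protein) read phosphorylation of Smad2 Ser465/467 and Smad3 Ser423/425. Before lysis, Panc-1 cells got 1 h of 10 ng/ml TGF-b1 following 3 h compound exposure at 37° C (10 μM final, or serial dilutions for IC50, 0.3% DMSO) after overnight 0.5% FBS starvation.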

TNF-alpha = TNF-alpha Quantification Assay (ELISA), LPS-stimulated RAW 264.7; format: cell-based; conditions: Mus musculus, RAW264.7; at 10 μM; read-out: TNFα: % inh.

Row | SMILES | % inh of Akt phosphorylation in Panc-1 (Akt phosphorylation) | % inh of Smad2/3 phosphorylation in Panc-1 [1] | inhibition at 10 µM (TNF-alpha)
1 | CO[C@H]1C[C@H](Nc2nc(-c3nccn3C)nn3cc(-c4cnccc4C)c(-c4ccccc4)c23)C1 [Compound 218, N-((1r,3r)-3-Methoxycyclobutyl)-2-(1-methyl-1H-imidazol-2-yl)-6-(4-methylpyridin-3-yl)-5-phenylpyrrolo[2,1-f][1,2,4]triazin-4-amine] | D* (85-100% activation) | B* (B* = 26-45% activation) | 1 to 24%
2 | COc1cccc(-c2cn3nc(-c4nccn4C)nc(N[C@H]4C[C@H](OC)C4)c3c2-c2ccccc2)c1OC [Compound 219, 6-(2,3-Dimethoxyphenyl)-N-((1r,3r)-3-methoxycyclobutyl)-2-(1-methyl-1H-imidazol-2-yl)-5-phenylpyrrolo[2,1-f][1,2,4]triazin-4-amine] | D (85-100% inhibition) | D (D = 76-100% inhibition) | 75 to 100%
3 | COc1ccnc(Oc2nc(-c3nccn3C)nn3cc(-c4ccn(C)n4)c(C)c23)c1 [Compound 220, 4-((4-Methoxypyridin-2-yl)oxy)-5-methyl-2-(1-methyl-1H-imidazol-2-yl)-6-(1-methyl-1H-pyrazol-3-yl)pyrrolo[2,1-f][1,2,4]triazine] | A (1-25% inhibition) | C (C = 46-75% inhibition) | 1 to 24%
4 | Cc1c(-c2ccn(C)n2)cn2nc(-c3nccn3C)nc(Nc3cc4c(cn3)CCO4)c12 [Compound 221, N-(5-Methyl-2-(1-methyl-1H-imidazol-2-yl)-6-(1-methyl-1H-pyrazol-3-yl)pyrrolo[2,1-f][1,2,4]triazin-4-yl)-2,3-dihydrofuro[3,2-c]pyridin-6-amine] | D* (85-100% activation) | A (A = 1-25% inhibition) | 0%
5 | Cc1c(-c2ccn(C)n2)cn2nc(-c3nccn3C)nc(Nc3cc(N4CCOCC4)ccn3)c12 [Compound 222, 5-Methyl-2-(1-methyl-1H-imidazol-2-yl)-6-(1-methyl-1H-pyrazol-3-yl)-N-(4-morpholinopyridin-2-yl)pyrrolo[2,1-f][1,2,4]triazin-4-amine] | D* (85-100% activation) | A* (A* = 1-25% activation) | 0%
6 | COc1ccnc(N(C)c2nc(-c3nccn3C)nn3cc(-c4ccn(C)n4)c(C)c23)c1 [Compound 223, N-(4-Methoxypyridin-2-yl)-N,5-dimethyl-2-(1-methyl-1H-imidazol-2-yl)-6-(1-methyl-1H-pyrazol-3-yl)pyrrolo[2,1-f][1,2,4]triazin-4-amine] | B (26-49% inhibition) | B (B = 26-45% inhibition) | 1 to 24%
7 | COc1ccc(Nc2nc(-c3nccn3C)nn3cc(-c4ccn(C)n4)c(C)c23)nc1 [Compound 224, N-(5-Methoxypyridin-2-yl)-5-methyl-2-(1-methyl-1H-imidazol-2-yl)-6-(1-methyl-1H-pyrazol-3-yl)pyrrolo[2,1-f][1,2,4]triazin-4-amine] | D* (85-100% activation) | 0 (0 = 0% inhibition) | 1 to 24%
8 | COc1ccc(N(C)c2nc(-c3nccn3C)nn3cc(-c4ccn(C)n4)c(C)c23)nc1 [Compound 225, N-(5-Methoxypyridin-2-yl)-N,5-dimethyl-2-(1-methyl-1H-imidazol-2-yl)-6-(1-methyl-1H-pyrazol-3-yl)pyrrolo[2,1-f][1,2,4]triazin-4-amine] | A* (1-25% activation) | 0 (0 = 0% inhibition) | 0%
9 | Cc1ccc(Nc2nc(-c3nccn3C)nn3cc(-c4ccn(C)n4)c(C)c23)nc1 [Compound 226, 5-Methyl-2-(1-methyl-1H-imidazol-2-yl)-6-(1-methyl-1H-pyrazol-3-yl)-N-(5-methylpyridin-2-yl)pyrrolo[2,1-f][1,2,4]triazin-4-amine] | D* (85-100% activation) | D (D = 76-100% inhibition) | 25 to 49%
10 | Cc1c(-c2ccn(C)n2)cn2nc(-c3nccn3C)nc(Nc3ccc(N(C)C)cn3)c12 [Compound 227, N5,N5-Dimethyl-N2-(5-methyl-2-(1-methyl-1H-imidazol-2-yl)-6-(1-methyl-1H-pyrazol-3-yl)pyrrolo[2,1-f][1,2,4]triazin-4-yl)pyridine-2,5-diamine] | D* (85-100% activation) | C (C = 46-75% inhibition) | 50 to 74%
11 | Cc1c(-c2ccn(C)n2)cn2nc(-c3nccn3C)nc(Nc3ccc(N4CCCC4)cn3)c12 [Compound 228, 5-Methyl-2-(1-methyl-1H-imidazol-2-yl)-6-(1-methyl-1H-pyrazol-3-yl)-N-(5-(pyrrolidin-1-yl)pyridin-2-yl)pyrrolo[2,1-f][1,2,4]triazin-4-amine] | D* (85-100% activation) | 0 (0 = 0% inhibition) | 1 to 24%
12 | CCOc1ccc(Nc2nc(-c3nccn3C)nn3cc(-c4ccn(C)n4)c(C)c23)nc1 [Compound 229, N-(5-Ethoxypyridin-2-yl)-5-methyl-2-(1-methyl-1H-imidazol-2-yl)-6-(1-methyl-1H-pyrazol-3-yl)pyrrolo[2,1-f][1,2,4]triazin-4-amine] | D* (85-100% activation) | A* (A* = 1-25% activation) | 0%
13 | Cc1c(-c2ccn(C)n2)cn2nc(-c3nccn3C)nc(Nc3ccc(OCC(F)(F)F)cn3)c12 [Compound 230, 5-Methyl-2-(1-methyl-1H-imidazol-2-yl)-6-(1-methyl-1H-pyrazol-3-yl)-N-(5-(2,2,2-trifluoroethoxy)pyridin-2-yl)pyrrolo[2,1-f][1,2,4]triazin-4-amine] | D* (85-100% activation) | D (D = 76-100% inhibition) | 1 to 24%
14 | Cc1c(-c2ccn(C)n2)cn2nc(-c3nccn3C)nc(Nc3ccc(OC(F)F)cn3)c12 [Compound 231, N-(5-(Difluorometh-oxy)pyridin-2-yl)-5-methyl-2-(1-methyl-1H-imidazol-2-yl)-6-(1-methyl-1H-pyrazol-3-yl)pyrrolo[2,1-f][1,2,4]triazin-4-amine] | D* (85-100% activation) | D (D = 76-100% inhibition) | 0%
15 | Cc1c(-c2ccn(C)n2)cn2nc(-c3nccn3C)nc(Nc3ccc(OC(F)(F)F)cn3)c12 [Compound 232, 5-Methyl-2-(1-methyl-1H-imidazol-2-yl)-6-(1-methyl-1H-pyrazol-3-yl)-N-(5-(trifluoro-methoxy)pyridin-2-yl)pyrrolo[2,1-f][1,2,4]triazin-4-amine] | D* (85-100% activation) | B (B = 26-45% inhibition) | 1 to 24%
16 | Cc1c(-c2ccn(C)n2)cn2nc(-c3nccn3C)nc(Nc3ccc(C(F)(F)F)cn3)c12 [Compound 233, 5-Methyl-2-(1-methyl-1H-imidazol-2-yl)-6-(1-methyl-1H-pyrazol-3-yl)-N-(5-(trifluoromethyl)pyridin-2-yl)pyrrolo[2,1-f][1,2,4]triazin-4-amine] | D* (85-100% activation) | B (B = 26-45% inhibition) | 1 to 24%
17 | Cc1c(-c2ccn(C)n2)cn2nc(-c3nccn3C)nc(Nc3ccc(C(F)F)cn3)c12 [Compound 234, N-(5-(Difluoromethyl)pyridin-2-yl)-5-methyl-2-(1-methyl-1H-imidazol-2-yl)-6-(1-methyl-1H-pyrazol-3-yl)pyrrolo[2,1-f][1,2,4]triazin-4-amine] | D* (85-100% activation) | D (D = 76-100% inhibition) | 1 to 24%
18 | COc1cc(Nc2nc(-c3nccn3C)nn3cc(-c4ccn(C)n4)c(C)c23)ncc1C [Compound 235, N-(4-Methoxy-5-methylpyridin-2-yl)-5-methyl-2-(1-methyl-1H-imidazol-2-yl)-6-(1-methyl-1H-pyrazol-3-yl)pyrrolo[2,1-f][1,2,4]triazin-4-amine] | D* (85-100% activation) | 0 (0 = 0% inhibition) | 0%
19 | COc1cnc(Nc2nc(-c3nccn3C)nn3cc(-c4ccn(C)n4)c(C)c23)cc1C [Compound 236, N-(5-Methoxy-4-methylpyridin-2-yl)-5-methyl-2-(1-methyl-1H-imidazol-2-yl)-6-(1-methyl-1H-pyrazol-3-yl)pyrrolo[2,1-f][1,2,4]triazin-4-amine] | B* (26-49% activation) | 0 (0 = 0% inhibition) | 0%
20 | COc1cc(Nc2nc(-c3nccn3C)nn3cc(-c4ccn(C)n4)c(C)c23)ncc1F [Compound 237, N-(5-Fluoro-4-methoxypyridin-2-yl)-5-methyl-2-(1-methyl-1H-imidazol-2-yl)-6-(1-methyl-1H-pyrazol-3-yl)pyrrolo[2,1-f][1,2,4]triazin-4-amine] | D* (85-100% activation) | A (A = 1-25% inhibition) | 0%
